Measurements reported in patent US20130324502A1, “NOVEL FORMULATIONS FOR DERMAL, TRANSDERMAL AND MUCOSAL USE 1” (MOBERG PHARMA AB, priority 2011, published 2013).

Assay: Franz cell penetration study through pig skin stratum corneum/epidermis membrane
Type: in vitro ADME
Conditions: for Cumulative penetration of spironolactone through stratum corneum/epidermis: formulation of Table 6a, receptor phosphate buffer pH 7.4
Protocol: The functionality of the formulation was tested by evaporating the anti-solvent ethyl acetate. […] This formulation was used for penetration testing. When applied to the skin, spironolactone is intended to penetrate through the statum corneum into epidermis/dermis and not through the skin.
In this set-up, dermis was removed from full thickness pig skin and the remaining membrane consisting of stratum corneum and epidermis was mounted in the cell. The receptor fluid was phosphate buffer at pH 7.4 and 32° C. An amount of the experimental formulation corresponding to 50 mg of product and 1.5 mg of active substance after evaporation was applied. […] The experiment was performed at 34° C. and analysis of spironolactone was performed by HPLC.

[1] = after 6 hours, 1.5 mg of active substance applied

With `CC(=O)S[C@@H]1CC2=CC(=O)CC[C@]2(C)[C@H]2CC[C@@]3(C)[C@@H](CC[C@@]34CCC(=O)O4)[C@H]12` [Spironolactone] the “amount of spironolactone passed the skin membrane” value [1] was 0.5 mg, the “spironolactone passed the skin membrane, % of the dose” value [1] was 33% and the “Cumulative penetration of spironolactone through stratum corneum/epidermis” value (time 0 h) was 0 μg/cm^2. The “Cumulative penetration of spironolactone through stratum corneum/epidermis” value (time 2 h) was 281 μg/cm^2, the “Cumulative penetration of spironolactone through stratum corneum/epidermis” value (time 4 h) was 381 μg/cm^2 and the “Cumulative penetration of spironolactone through stratum corneum/epidermis” value (time 6 h) was 440 μg/cm^2. For the same molecule, the “Cumulative penetration of spironolactone through stratum corneum/epidermis” value (time 24 h) was 466 μg/cm^2.
